Measurements reported in US20100249064A1, “METHODS AND COMPOSITIONS FOR TREATING DISEASES AND CONDITIONS INVOLVING HIGHER MOLECULAR WEIGHT HYALURONAN” (University of Chicago, priority 2007, published 2010).

Key:
[1] = tested on: Human pulmonary EC; assay: Atomic Force Microscopy of EC morphology and lipid rafts; type: cell-based; conditions: 100 nM high MW HA
Description: Atomic Force Microscopy. The protocols/procedures for AFM analysis of 50 to 100 nm pits (CEM, lipid rafts), EC height and force measurements were previously described in detail (Dvorak, 2003, Reich et al., 2001, Henderson et al., 2004, Milhiet et. al., 2004, Miklaszewska, 2004, Lucius, 2003). EC treated with various siRNAs or treated with MβCD with or without 100 nM high MW HA (0, 15, 30, 60 min.) were fixed in 4% glutaraldehyde and analyzed in tapping mode on a DI multimode AFM (Digital Instruments, Santa Barbara, Calif.) using a V-shaped oxide-sharpened silicon nitride cantilever with an optical scanning speed of ˜1.0 Hz to obtain a surface topology map which was quantitated and spatially defined using Metamorph™ software. For live cells, GFP and GFP-caveolin-1 expressing EC were treated with or without 100 nM high MW HA in a DI Bioscope cell chamber (Digital Instruments, Santa Barbara, Calif.) were exposed to tapping mode AFM with concurrent fluorescence scanning and images were obtained using a C5985 chilled CCD camera (Hamamatsu Photonics Systems, Bridgewater, N.J.).

[2] = tested on: caveolin-1; assay: Caveolin-1 expression in mouse lung homogenates (immunoblot); type: in vivo; conditions: HMW-HA+LPS
Description: Animal Preparation and Treatment. Male C57BL/6J, B6129N2, CD44^−/− or caveolin-1^−/− mice (8-10 weeks, Jackson Laboratories, Bar Harbor, Me.) were anesthetized with intraperitoneal ketamine (150 mg/kg) and acetylpromazine (15 mg/kg) before exposure of the right internal jugular vein via neck incision. LPS (2.5 mg/kg) or water (control) were instilled intratracheally. Four hours later, mice receive high MW HA (1.5 mg/kg) or water control through the internal jugular vein. The animals were allowed to recover for 24 hours after LPS before bronchioalveolar lavage protein and cytokine concentration and/or lung immunohistochemistry/immunoblot analysis (Peng et al., 2004).
Immunoblot analysis of CD44 and Caveolin-1 expression in control, LPS- and HA-treated mouse lung homogenates. CD44 is highly likely to be important in lung disease as CD44−/− mice develop lung fibrosis, inflammatory cell recruitment and accumulation of hyaluronan fragments at sites of lung injury (Teder et al., 2002). […] Caveolin-1 can be differentially regulated in various models of acute lung injury (ALI). Monocrotaline-induced rodent pulmonary hypertension results in a loss of lung EC caveolin-1 expression (Mathew et al., 2004). In contrast, there is no change in pulmonary caveolin-1 expression in lipopolyscaaharide (LPS)-induced sepsis with lung injury (Garrean et al., 2006). […]

[3] = tested on: C1INH; assay: C1INH expression in EC (immunoblot); type: cell-based, human; conditions: 100 nM HMW-HA
Description: Determination of the role of HMW-HA/HABP2/C1INH interactions in regulating angiogenesis in vitro. Human pulmonary EC (Cambrex), grown in EBM-2 complete medium (Cambrex) at 37° C. in a humidified atmosphere of 5% CO2, 95% air, with passages 6-10 used for experimentation will be treated with or without 100 nM HMW-HA and/or 100 nM VEGF in the presence or absence of HABP2 and/or C1INH overexpression vectors (Origene), exogenous purified recombinant HABP2 polyanion binding domain and/or C1INH (Novus Biologicals) and/or siRNA (scramble, HABP2 or C1INH). For HABP2 protease activity determination, media from HABP2 overexpressing EC (see above) was immunoprecipitated with anti-HABP2 antibody-conjugated Sepharose beads (Sigma). The immunobeads were then extensively washed in 50 mM Borate, pH=8.5 and protease activity was measured using the QuantiCleave™ Protease Assay Kit (Pierce). Briefly, the immunobeads were incubated with succinylated casein for one hour followed by development with TNBSA (2,4,6-trinitrobenzene sulfonic acid) and read at 450 nm.

## hyaluronan [HMW-HA]
[1]
  EC morphological changes (AFM): caused dramatic morphological changes including increased thickening of EC junctions
  total number of lipid raft-like structures (AFM): did not change
[2]
  caveolin-1 expression in mouse lungs: did not significantly alter caveolin-1 expression
[3]
  C1INH expression in EC: increased the expression of the endogenous inhibitor of HABP2, C1INH
